Patent US9603836B2, “Pyrrolidine-2, 5-dione derivatives, pharmaceutical compositions and methods for use as IDO1 inhibitors” (ITEOS THERAPEUTICS, priority 2014, dated 2017)

Experiments:
Kynurenine [1] = test: Inhibition of tryptophan degradation in 4T1 tumor tissue; type: in vivo, Balb/c mice; conditions: 200 mg/kg oral twice per day, 4 h after administration
Protocol: Compounds of this invention are capable of lowering kynurenine concentration within mouse tumors, for example 4T1 syngeneic tumors of Balb/c mice implanted orthotopically in the mammary gland. One hundred thousand 4T1 breast cancer cells were implanted orthotopically within the mammary gland of 7 weeks old Balb/c mice (day 0). Animals were randomized based on tumor size when tumor average reached 60 mm^3 (day 6) into different treatment cohorts (n=10/group). Animals were treated with Methocel vehicle from day 6 to 26 until tumors reached a size comprised between 1500 and 2000 mm^3. […] The tumor was removed, weighted and frozen on dry ice. Tumors were analyzed by LC/MS-MS for Kynurenine concentration.

Kynurenine [2] = test: Inhibition of tryptophan degradation in CT26 tumor tissue; type: in vivo, Balb/c mice; conditions: 200 mg/kg oral twice per day, 2 h after administration
From the text: (§1) In the present study, CT26 syngeneic tumors were implanted subcutaneously in Balb-c mice. More particularly, Five hundred thousand (500,000) CT26 colon carcinoma cancer cells [CT26.WT, available from the ATCC® CRL-2628™] were implanted subcutaneously in 7 weeks old Balb/c mice (day 0). Animals were randomized based on tumor size when tumor average reached 150 mm^3 (day 11) into different treatment cohorts (n=10/group). […] The tumor was removed, weighted and frozen on dry ice. Tumors were analyzed by LC/MS-MS for Kynurenine concentration.

4T1 tumors = test: In vivo efficacy in 4T1 breast cancer syngeneic model; set-up: species or system Balb/c mice; conditions: 4T1, 100 mg/kg BID oral
Protocol: In vivo efficacy studies for Compounds of the present invention were performed on 4T1 syngeneic tumor model of Balb/c mice implanted orthotopically in the mammary gland. One hundred thousand 4T1 breast cancer cells (ATCC® CRL-2539™)] were implanted orthotopically within the mammary gland of 7 weeks old Balb/c mice (day 0). Animals were randomized based on tumor size when tumor average reached 60 mm^3 (between day 7 and 11) into different treatment cohorts. The Compound of the present invention was administered orally twice per day (approximately at 9 am and 5 pm) starting the day of randomization. The Compounds were suspended into Methocel™ cellulose ether vehicle and sonicated before oral administration to animals using gavage needles. Treatment was administered daily until the end of the study. All experimental animals were monitored for body weight changes twice weekly. Tumor volume was measured twice a week by a caliper device and calculated with the following formula: Tumor volume=0.5×(length×width^2). Studies were terminated before tumor volumes reached 2000 mm. TGI (% tumor growth inhibition) was determined as […]

CT26 tumors = test: Tumor growth inhibition in CT26 colon syngeneic mouse tumor model; type: in vivo, Balb/c mice
From the text: as §1
In a separate study, anti-tumor efficacy of IDO-1 inhibition was tested in the colon syngeneic mouse tumor model CT26 with a range of different treatment regimens. The model was essentially as described above, except that 1×10^6 cells in phosphate buffered saline (PBS) were implanted subcutaneously in the flank of 8 week old Balb/c females on day 0 (10 in each group). Mice were randomized into treatment groups (100 mg/kg BID, 200 mg/kg BID or 600 mg/kg BID) based on tumor size on day 9 when treatment started. The results are shown the following table and in FIG. 7.

PancO2 tumors = test: In vivo efficacy in PancO2 pancreatic cancer syngeneic model; set-up: species or system C57/B16 mice; conditions: PancO2, 200 mg/kg BID oral
Protocol: In vivo efficacy studies of the Compounds of the present invention were performed on PancO2 syngeneic tumor model of C57/B16 mice implanted subcutaneously. Five millions PancO2 pancreas cancer cells were implanted subcutaneously to 7 weeks old C57/B16 mice (day 0). Animals were randomized based on tumor size when tumor average reached 60 mm^3 (between day 10 and 12) into different treatment cohorts. The Compound was administered orally twice per day (approximately at 9 am and 5 pm) starting the day of randomization. The Compound was suspended into Methocel vehicle and sonicated before oral administration to animals using gavage needles. Treatment was administered daily until the end of the study. All experimental animals were monitored for body weight changes weekly. Tumor volume was measured weekly using a caliper device and calculated with the following formula: Tumor volume=0.5×(length×width^2). Studies were terminated before tumor volumes reached 2000 mm. TGI (% tumor growth inhibition) was determined as
Treatment was administered daily until the end of the study. Tumor volume was measured weekly using a caliper device and calculated with the following formula: Tumor volume=0.5×(length×width^2). Mice were considered as dead when tumor size reached 400 mm^3. […] SEM refers to standard error of measurement.

Kynurenine [3] = test: In-vivo inhibition of blood kynurenine levels in healthy mice; set-up: species or system mouse; conditions: two hours
Protocol: The compounds of the present invention reduce the amount of Kynurenine in healthy mouse blood.
Briefly, mice were treated with either a suspension of one of the compounds of the present invention in 0.5% hydroxypropyl methylcellulose (HPMC) K4M/0.25% Tween 20 at different doses, or with a vehicle control (0.5% HPMC K4M/0.25% Tween 20), by the oral route by gavage (dosing volume 5 mL/kg, 10 mice per group). After two hours, blood was harvested, plasma was prepared and the amount of Kynurenine present was determined by LC-MS-MS (HPLC column Unison UK-Phenyl, 75×4.6, 3 μm, flow rate 0.8 mL/min, 4 minutes gradient from water+0.2% acetic acid to methanol+0.1% formic acid, retention time 2.7 min; API4000™ MS-MS system from AB Sciex, ESI+ mode, parent ion 209.2, daughter ion 94.1).

O=C1CC(c2c[nH]c3ccc(F)cc23)C(=O)N1 (racemic) [Compound 1, 3-(5-fluoro-1H-indol-3-yl)pyrrolidine-2,5-dione]
Kynurenine concentration (ng/g tumor) Average ± SEM (Kynurenine [1]): 417.2 ± 55.7 ng/g tumor | reduction of Kynurenine concentration (Kynurenine [1]): 47% | Kynurenine concentration (ng/g tumor) Average ± SEM (Kynurenine [2]): 876 ± 68 ng/g tumor | reduction of Kynurenine concentration (Kynurenine [2]): 59% | Mean tumor volume on day 25 (4T1 tumors): 443.7 mm^3 | TGI (Tumor growth inhibition) (4T1 tumors; day 25): 43.4% | % TGI (D15) (CT26 tumors; CT26, 100 mg/kg BID): 29% | % TGI (D17) (CT26 tumors; CT26, 100 mg/kg BID): 33% | % TGI (D20) (CT26 tumors; CT26, 100 mg/kg BID): 20% | % TGI (D15) (CT26 tumors; CT26, 200 mg/kg BID): 38% | % TGI (D17) (CT26 tumors; CT26, 200 mg/kg BID): 41% | % TGI (D20) (CT26 tumors; CT26, 200 mg/kg BID): 34% | % TGI (D15) (CT26 tumors; CT26, 600 mg/kg BID): 36% | % TGI (D17) (CT26 tumors; CT26, 600 mg/kg BID): 51% | % TGI (D20) (CT26 tumors; CT26, 600 mg/kg BID): 38% | Mean tumor volume on day 42 (PancO2 tumors): 457.0 mm^3 | TGI (Tumor growth inhibition) (PancO2 tumors; day 42): 26.2% | Kynurenine concentration in plasma (average ± standard error of the mean) (Kynurenine [3]; 100 mg/kg oral): 111.1 ± 27.0 ng/mL | inhibition of circulating Kynurenine (Kynurenine [3]; 100 mg/kg oral): 41% | Kynurenine concentration in plasma (average ± standard error of the mean) (Kynurenine [3]; 200 mg/kg oral): 77.7 ± 9.2 ng/mL | inhibition of circulating Kynurenine (Kynurenine [3]; 200 mg/kg oral): 59%
